Data from patent publication US20220380314A1, “SUBSTITUTED, SATURATED AND UNSATURATED N-HETEROCYCLIC CARBOXAMIDES AND RELATED COMPOUNDS FOR THEIR USE IN THE TREATMENT OF MEDICAL DISORDERS” (Bial - R&D Investments, S.A., priority 2019, published 2022).
Counter-ions that a name gives are not always drawn.

What follows are compounds tested against T1, acid ceramidase (hACR) (Homo sapiens, UniProt Q13510) (assay: Acid ceramidase inhibition, biochemical fluorescent assay with cell lysates overexpressing acid ceramidase, substrate Rbm14-12). Conditions: cell lysates overexpressing acid ceramidase; 1 hr preincubation at RT; pH 4.5; substrate Rbm14-12 6.3 μM; read-out: hACR IC50.
T1 construct: expressed in transfected cells; cell lysate used
T1 sequence (Q13510 143-395 limits assumed): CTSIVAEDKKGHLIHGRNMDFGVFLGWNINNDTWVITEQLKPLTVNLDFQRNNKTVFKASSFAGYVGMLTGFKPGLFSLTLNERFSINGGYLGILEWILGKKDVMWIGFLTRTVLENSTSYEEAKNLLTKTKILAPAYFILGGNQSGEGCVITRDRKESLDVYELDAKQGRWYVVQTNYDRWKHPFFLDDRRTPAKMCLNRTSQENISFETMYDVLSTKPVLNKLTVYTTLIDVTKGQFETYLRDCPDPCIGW
T1 sequence (Q13510 22-142 limits assumed): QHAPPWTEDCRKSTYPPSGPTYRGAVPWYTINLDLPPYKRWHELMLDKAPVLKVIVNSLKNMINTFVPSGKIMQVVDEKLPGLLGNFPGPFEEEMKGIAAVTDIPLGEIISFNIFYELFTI
Experimental: The ability of exemplary compounds to inhibit acid ceramidase was measured.
Cell lysates overexpressing acid ceramidase were used as the enzyme source for compound potency determination in a biochemical fluorescent assay. Briefly, compounds were preincubated with 10 µg protein of cell lysates in a dose-response manner for 1 hr at RT in the assay buffer containing 25 mM NaAC and 100 mM NaCl, pH 4.5. The reaction was initiated by the addition of substrate Rbm14-12 at a final concentration of 6.3 μM. The reaction was run at RT for 1 hr before it was stopped by the addition of the stopping buffer containing 20% methanol (v/v), 1 mg/ml NaIO4, 0.1 M glycine, pH 10.6. The samples were incubated with the stopping buffer at RT for 1 hr to allow the fluorescent product to be formed. Finally the plate was read with SpectraMax i3 plate reader (Molecular Devices) at ex360 nm and em446 nm. Data were collected and used to determine the IC50 values of compounds by curve fitting to the four-parameter inhibition equation.
The symbol “A” indicates inhibition of less than 0.2 μM; the symbol “B” indicates inhibition in the range of 0.2 μM up to 1 μM; and the symbol “C” indicates inhibition of greater than 1 μM.
CC1(C)CCC(N2CCCCC2)CN1C(=O)NCCCCc1ccccc1 (stereo not drawn) [Example 99, 2,2-Dimethyl-N-(4-phenylbutyl)-5-(1-piperidyl)piperidine-1-carboxamide] gave an IC50 of under 200 nM.
For CC1CC(N2CCCCC2)CCN1C(=O)NCCCCc1ccccc1 (mixture of isomers) [Example 94, 2-Methyl-N-(4-phenylbutyl)-4-(1-piperidyl)piperidine-1-carboxamide], the IC50 was under 200 nM.
CC1C(N2CCCCC2)CCCN1C(=O)NCCCCc1ccccc1 (stereo not drawn) [Example 101, 2-Methyl-N-(4-phenylbutyl)-3-(1-piperidyl)piperidine-1-carboxamide] showed an IC50 of 200 to 1000 nM.
CC1(C)CC(N2CCC(c3ccccc3)CC2)CCN1C(=O)NCCCCc1ccccc1 (stereo not drawn) [Example 93, 2,2-Dimethyl-N-(4-phenylbutyl)-4-(4-phenyl-1-piperidyl)piperidine-1-carboxamide] showed an IC50 of under 200 nM.
CCCCCNC(=O)N1C(c2ccc(F)c(F)c2)COCC1(C)C (stereo not drawn) [Example 162, 5-(3,4-Difluorophenyl)-3,3-dimethyl-N-pentylmorpholine-4-carboxamide] was tested, and the IC50 was under 200 nM.
CCCCCNC(=O)N1CCC(N2CCCCC2)CC1C (stereo not drawn) [Example 95, 2-Methyl-N-pentyl-4-(1-piperidyl)piperidine-1-carboxamide] showed an IC50 of 200 to 1000 nM.
With CCCCCNC(=O)N1C(C)CC(N2CCCCC2)CC1C (stereo not drawn) [Example 98, 2,6-Dimethyl-N-pentyl-4-(1-piperidyl)piperidine-1-carboxamide hydrochloride] the IC50 was under 200 nM.
In the case of CC(C)CNC(=O)N1C(c2ccc(F)cc2)COCC1(C)C (stereo not drawn) [Example 140, 5-(4-Fluorophenyl)-N-isobutyl-3,3-dimethylmorpholine-4-carboxamide], the IC50 is reported as under 200 nM.
With CCCCCNC(=O)N1CC(C)C(N2CCCCC2)CC1(C)C (stereo not drawn) [Example 124, 2,2,5-Trimethyl-N-pentyl-4-(1-piperidyl)piperidine-1-carboxamide] the IC50 was under 200 nM.
CC1(C)CN(C(=O)NCCCCc2ccccc2)C(C)(C)CC1=O [Example 120, 2,2,5,5-Tetramethyl-4-oxo-N-(4-phenylbutyl)piperidine-1-carboxamide] gave an IC50 of over 1000 nM.
For CC1CN(C(=O)NCCCCc2ccccc2)C(C)(C)CC1=O (stereo not drawn) [Example 119, 2,2,5-Trimethyl-4-oxo-N-(4-phenylbutyl)piperidine-1-carboxamide], the IC50 was over 1000 nM.
With CCCCCNC(=O)N1[C@@H]2CC[C@H]1CC(c1ccccc1)C2 (mixture of isomers) [Example 82, endo- and exo-N-Pentyl-3-phenyl-8-azabicyclo[3.2.1]octane-8-carboxamide] the IC50 was over 1000 nM.
CCCCCNC(=O)N1C(c2ccc(F)c(OC)c2)COCC1(C)C (stereo not drawn) [Example 163, 5-(4-Fluoro-3-methoxyphenyl)-3,3-dimethyl-N-pentylmorpholine-4-carboxamide] showed an IC50 of under 200 nM.
In the case of CN1CC(C)(C)N(C(=O)NCCCCc2ccccc2)CC1c1ccccc1 (stereo not drawn) [Example 166, 2,2,4-Trimethyl-5-phenyl-N-(4-phenylbutyl)piperazine-1-carboxamide], the IC50 is reported as under 200 nM.
For CC1(C)C(=O)N(c2ccccc2)CCN1C(=O)NCCOCc1ccccc1 [Example 108, N-(2-Benzyloxyethyl)-2,2-dimethyl-3-oxo-4-phenylpiperazine-1-carboxamide], the IC50 was over 1000 nM.
With CC1(C)CN(C2CC2)CCN1C(=O)NCCCCc1ccccc1 [Example 111, 4-Cyclopropyl-2,2-dimethyl-N-(4-phenylbutyl)piperazine-1-carboxamide] the IC50 was under 200 nM.
Compound CC1(C)CC(N2CCCCC2)C(Cc2ccccc2)CN1C(=O)NCCc1ccccc1 (stereo not drawn) [Example 126, 5-Benzyl-2,2-dimethyl-N-(2-phenylethyl)-4-(1-piperidyl)piperidine-1-carboxamide] has an IC50 of under 200 nM.
CCCCCCCNC(=O)N1C(c2ccccc2)COCC1(C)C (stereo not drawn) [Example 134, N-Heptyl-3,3-dimethyl-5-phenylmorpholine-4-carboxamide] gave an IC50 of under 200 nM.
For CCCCCNC(=O)N1CCN(C2CC2)CC1(C)C [Example 112, 4-Cyclopropyl-2,2-dimethyl-N-pentylpiperazine-1-carboxamide], the IC50 was under 200 nM.
CCCCCNC(=O)N1C(c2ccc(OC)cc2F)COCC1(C)C (stereo not drawn) [Example 160, 5-(2-Fluoro-4-methoxyphenyl)-3,3-dimethyl-N-pentylmorpholine-4-carboxamide] showed an IC50 of under 200 nM.
For CCCCCNC(=O)N1CC(Cc2ccccc2)C(N2CCCCC2)CC1(C)C (stereo not drawn) [Example 127, 5-Benzyl-2,2-dimethyl-N-pentyl-4-(1-piperidyl)piperidine-1-carboxamide], the IC50 was under 200 nM.
With CC1(C)CC(N2CCCCC2)C(Cc2ccccc2)CN1C(=O)NCCCCc1ccccc1 (stereo not drawn) [Example 125, 5-Benzyl-2,2-dimethyl-N-(4-phenylbutyl)-4-(1-piperidyl)piperidine-1-carboxamide] the IC50 was under 200 nM.
With CC1(C)CCc2c(-c3ccccn3)cccc2N1C(=O)NCCc1ccccc1 [Example 5, 2,2-Dimethyl-N-phenethyl-5-(pyridin-2-yl)-3,4-dihydroquinoline-1(2H)-carboxamide] the IC50 was over 1000 nM.
Compound CC1(C)CN(C2CCCCC2)CCN1C(=O)NCCCCc1ccccc1 [Example 110, 4-Cyclohexyl-2,2-dimethyl-N-(4-phenylbutyl)piperazine-1-carboxamide] has an IC50 of under 200 nM.
CC1(C)CN(c2ccccc2)CCN1C(=O)NCCCCc1ccccc1 [Example 103, 2,2-Dimethyl-4-phenyl-N-(4-phenylbutyl)piperazine-1-carboxamide] showed an IC50 of under 200 nM.
Work on COc1ccc(C2COCC(C)(C)N2C(=O)NCCc2ccc(F)cc2)cc1 (stereo not drawn) [Example 148, N-[2-(4-Fluorophenyl)ethyl]-5-(4-methoxyphenyl)-3,3-dimethylmorpholine-4-carboxamide] yielded an IC50 of under 200 nM.
CC[C@H](C)NC(=O)N1C(c2ccc(OC)cc2)COCC1(C)C (mixture of isomers) [Example 155, (5R) AND (5S)-5-(4-Methoxyphenyl)-3,3-dimethyl-N-[(1S)-1-methylpropyl]morpholine-4-carboxamide] was tested, and the IC50 was under 200 nM.
In the case of COc1ccc(C2COCC(C)(C)N2C(=O)NCC(F)(F)F)cc1 (stereo not drawn) [Example 152, 5-(4-Methoxyphenyl)-3,3-dimethyl-N-(2,2,2-trifluoroethyl)morpholine-4-carboxamide], the IC50 is reported as over 1000 nM.
COc1ccc(C2COCC(C)(C)N2C(=O)NCCC(C)C)cc1 (stereo not drawn) [Example 147, N-iso-Pentyl-5-(4-methoxyphenyl)-3,3-dimethylmorpholine-4-carboxamide] gave an IC50 of under 200 nM.
C[C@@H]1CN(C(=O)NCCCCc2ccccc2)[C@@H](C)CN1C1CC1 [Example 113, (2S,5R)-4-Cyclopropyl-2,5-dimethyl-N-(4-phenylbutyl)piperazine-1-carboxamide] gave an IC50 of 200 to 1000 nM.
For CC1CCC(N2CCCCC2)CN1C(=O)NCCCCc1ccccc1 (stereo not drawn) [Example 100, 2-Methyl-N-(4-phenylbutyl)-5-(1-piperidyl)piperidine-1-carboxamide], the IC50 was 200 to 1000 nM.
In the case of CCCCCNC(=O)N1CCC(N2CCCCC2)C[C@H]1C (stereo partly drawn) [Example 96, (2R)-Methyl-N-pentyl-4-(1-piperidyl)piperidine-1-carboxamide hydrochloride salt], the IC50 is reported as under 200 nM.
In the case of COc1ccc(C2COCC(C)(C)N2C(=O)NCc2ccc(F)cc2)cc1 (stereo not drawn) [Example 151, N-[(4-Fluorophenyl)methyl]-5-(4-methoxyphenyl)-3,3-dimethylmorpholine-4-carboxamide], the IC50 is reported as under 200 nM.
CCCCCNC(=O)N1[C@@H]2CC[C@H]1C[C@H](N1CCCCC1)C2 [Example 102, Exo-N-Pentyl-3-(1-piperidyl)-8-azabicyclo[3.2.1]octane-8-carboxamide] gave an IC50 of over 1000 nM.
CC1(C)CC(N2CCCCC2c2ccccc2)CCN1C(=O)NCCCCc1ccccc1 (mixture of isomers) [Example 91, 2,2-Dimethyl-N-(4-phenylbutyl)-4-(2-phenyl-1-piperidyl)piperidine-1-carboxamide] was tested, and the IC50 was over 1000 nM.
Compound CCCCCNC(=O)N1C(c2ccc(F)cc2)COCC1(C)C (single isomer, unassigned) [Example 138, (5S) or (5R)-5-(4-Fluorophenyl)-3,3-dimethyl-N-pentylmorpholine-4-carboxamide] has an IC50 of under 200 nM.
Work on CN1CC(c2ccc(F)cc2)N(C(=O)NCCOCC2CC2)C(C)(C)C1 (stereo not drawn) [Example 168, N-[2-(Cyclopropylmethoxy)ethyl]-6-(4-fluorophenyl)-2,2,4-trimethylpiperazine-1-carboxamide hydrochloride] yielded an IC50 of under 200 nM.
For CC1(C)CC(c2ccccc2)CCN1C(=O)NC1CCOCC1 (stereo not drawn) [Example 78, 2,2-Dimethyl-4-phenyl-N-tetrahydropyran-4-yl-piperidine-1-carboxamide], the IC50 was over 1000 nM.
In the case of COc1ccc(C2COCC(C)(C)N2C(=O)NCC2CCCCC2)cc1 (stereo not drawn) [Example 150, N-(Cyclohexylmethyl)-5-(4-methoxyphenyl)-3,3-dimethylmorpholine-4-carboxamide], the IC50 is reported as under 200 nM.
